Test [1] relates to Mus musculus. The experiment in a line: Percent activity against delta selective antinociception when given icv injection at a dose of 10 nmol 20 min before the mouse tail flick test along with 4 nmol ICI 174864. Type of test: functional.
For test [2], the system named is Mus musculus. The experiment in a line: Percent activity against delta selective antinociception when given icv injection at a dose of 10 nmol 20 min before mouse tail flick test. In kind it is functional.
For test [3], the target named is Kappa-type opioid receptor (Cavia porcellus, UniProt P41144). The experiment in a line: Activity was evaluated by inhibition of the binding of 1 nM [3H]U-69593 at Opioid receptor kappa 1 binding site.
Chain of Kappa-type opioid receptor (P41144 whole entry): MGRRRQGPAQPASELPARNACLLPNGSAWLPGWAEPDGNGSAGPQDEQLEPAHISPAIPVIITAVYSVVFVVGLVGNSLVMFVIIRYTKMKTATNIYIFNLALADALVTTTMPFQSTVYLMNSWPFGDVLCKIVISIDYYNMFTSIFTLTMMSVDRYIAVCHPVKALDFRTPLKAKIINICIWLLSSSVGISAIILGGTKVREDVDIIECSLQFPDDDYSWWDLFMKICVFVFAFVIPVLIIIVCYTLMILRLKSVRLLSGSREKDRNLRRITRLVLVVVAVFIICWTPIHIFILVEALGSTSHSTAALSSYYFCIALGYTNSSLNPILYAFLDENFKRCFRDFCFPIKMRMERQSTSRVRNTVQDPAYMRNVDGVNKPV
In another test the target is Mu-type opioid receptor (Bos taurus, UniProt P79350). The experiment in a line: Activity was evaluated by inhibition of the binding of 0.8 nM [3H]- DAMGO at Opioid receptor mu 1 binding site.
Chain of Mu-type opioid receptor (P79350 whole entry): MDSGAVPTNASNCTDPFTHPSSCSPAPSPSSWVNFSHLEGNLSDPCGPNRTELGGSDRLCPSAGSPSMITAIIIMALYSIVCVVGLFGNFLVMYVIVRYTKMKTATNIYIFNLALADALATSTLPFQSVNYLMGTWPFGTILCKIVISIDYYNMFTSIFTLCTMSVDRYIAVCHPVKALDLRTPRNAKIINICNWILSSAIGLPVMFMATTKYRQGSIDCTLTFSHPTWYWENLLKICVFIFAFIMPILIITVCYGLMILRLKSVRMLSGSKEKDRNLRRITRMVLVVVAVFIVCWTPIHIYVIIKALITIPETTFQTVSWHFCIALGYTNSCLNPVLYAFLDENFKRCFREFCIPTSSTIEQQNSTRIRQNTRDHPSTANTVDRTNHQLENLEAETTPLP
The species entered for test [4] is Mus musculus. The experiment in a line: Antinociceptive action was evaluated by mouse tail flick assay at a dose of 300 nmol on 5 mice. Type of test: functional.
For test [5], the species on record is Mus musculus. The experiment in a line: Antinociceptive action was evaluated by mouse tail flick assay at a dose of 100 nmol in the presence of 3 nmol morphine on 5 mice. In kind it is functional.
The species named for test [6] is Mus musculus. The experiment in a line: Antinociceptive action was evaluated by mouse tail flick assay at a dose of 100 nmol on 10 mice. Type of test: functional.
The species named for test [7] is Mus musculus. The experiment in a line: Antinociceptive action was evaluated by mouse tail flick assay at a dose of 100 nmol in the presence of morphine on 9 mice. Type of test: functional.
Test [8] is filed under the species Mus musculus. The experiment in a line: Antinociceptive action was evaluated by mouse tail flick assay at a dose of 10 nmol on 5 mice. Type of test: functional.
The species named for test [9] is Mus musculus. The experiment in a line: Antinociceptive action was evaluated by mouse tail flick assay at a dose of 3 nmol on 9 mice. In kind it is functional.

In the case of `CC1(C)SSC(C)(C)[C@@H](NC(=O)[C@@H](N)Cc2ccc(O)cc2)C(=O)NCC(=O)N[C@@H](Cc2ccccc2)C(=O)N[C@H]1C(=O)O`, the values for the Activity in the test on Mus musculus [1] and with Mus musculus [2] were 5% and 55%, respectively.
Take `CNCC12Cc3ccc(O)cc3C(C)(CCC1N)C2` (stereo unspecified): the Ki is 51.6 nM in [3] and 91.6 nM on Mu-type opioid receptor.
For `COC[C@]12Cc3ccc(O)cc3[C@](C)(CCc3nnnn31)C2`, the Ki in test [3] is over 10000 nM.
Regarding `CN1CNC2CCC3(C)CC2(Cc2ccc(O)cc23)C1` (stereo unspecified), the Ki in test [3] stood at 17.2 nM; on Mu-type opioid receptor, 27.7 nM.
For `COCC12Cc3ccc(O)cc3[C@](C)(CCCN1C)C2` (single isomer, unassigned), the Ki in test [3] amounted to 795 nM. In other words, the sub-micromolar range.
Consider `CN(C)C1CCC2(C)CC1(CO)Cc1ccc(O)cc12` (single isomer, unassigned; (+)), for which the Ki was 2900 nM in test [3] and 830 nM on Mu-type opioid receptor.
`CN(C)C1CCC2(C)CC1(C)Cc1ccc(O)cc12` (single isomer, unassigned; (+)) had a Ki in test [3] of 5960 nM.
Take `CN1CC23Cc4ccc(O)cc4C(C)(CCC12)C3` (single isomer, unassigned; (+)): the inhibition constant (Ki) in test [3] is 215 nM; at Mu-type opioid receptor, 179 nM.
For the compound `COCC12Cc3ccc(O)cc3C(C)(CCC1N(C)C)C2` (single isomer, unassigned; (+)), the Ki in [3] worked out at 123 nM; at Mu-type opioid receptor, 25.2 nM.
On to `CNC1CCC2(C)CC1(CO)Cc1ccc(O)cc12` (single isomer, unassigned; (+)), for which the Ki in test [3] is 440 nM; on Mu-type opioid receptor, 42 nM.
Take `CN(C)C1CCC2(C)CC1(C)Cc1ccc(O)cc12` (single isomer, unassigned; (-)): the values for the Ki (in test [3]; on Mu-type opioid receptor) were 409 nM and 297 nM, respectively.
`CC12CCC(N)C(CO)(Cc3ccc(O)cc31)C2` (single isomer, unassigned; (-)): the Ki in [3] is 109 nM; on Mu-type opioid receptor, 40.6 nM.
For the compound `COCC12Cc3ccc(O)cc3C(C)(CCC1N(C)C)C2` (single isomer, unassigned; (-)), the Ki is 60.9 nM in [3] and 19.3 nM at Mu-type opioid receptor.
For the compound `CNC1CCC2(C)CC1(CO)Cc1ccc(O)cc12` (single isomer, unassigned; (-)), the inhibition constant (Ki) was determined as 650 nM in [3] and 380 nM on Mu-type opioid receptor.
`COCC12Cc3ccc(O)cc3C(C)(CCC1N)C2` (stereo in doubt; (+)3a): the Antinociception in the test listed under Mus musculus [4] was determined as 13%; in the test listed under Mus musculus [5] it was 58%. Moreover, the Ki in [3] was 80.8 nM; at Mu-type opioid receptor it was 1.99 nM.
For `CC12CCC(N)C(CO)(Cc3ccc(O)cc31)C2` (stereo in doubt; (+)-3b), the Ki in test [3] is over 10000 nM; at Mu-type opioid receptor it was 41.2 nM.
In the case of `COCC12Cc3ccc(O)cc3C(C)(CCC1N)C2` (stereo in doubt; (-)-3a), the Ki in test [3] came to 53.1 nM; at Mu-type opioid receptor, 2.29 nM. The same compound returned an Antinociception in the test listed under Mus musculus [6] of 37%.
As for `CN(C)C1CCC2(C)CC1(CO)Cc1ccc(O)cc12` (stereo in doubt; (-)-3c), the values for the Ki (in [3]; at Mu-type opioid receptor) were 3800 nM and 870 nM, respectively.
For `COCC12Cc3ccc(O)cc3C(C)(CCC1N)C2` (stereo in doubt; (dl)-22), the Ki came out at 6.62 nM in test [3] and 1.99 nM on Mu-type opioid receptor. For the same compound, the Antinociception in the test filed under Mus musculus [7] is listed as 74%.
With `CN1CC[C@]23c4c5ccc(O)c4O[C@H]2[C@@H](O)C=C[C@H]3[C@H]1C5` [MORPHINE], the figures for the Antinociception in the test listed under Mus musculus [8] and in the test filed under Mus musculus [9] were 100% and 65%, respectively.

These data come from ChEMBL document CHEMBL1129309, “Asymmetric syntheses, opioid receptor affinities, and antinociceptive effects of 8-amino-5,9-methanobenzocyclooctenes, a new class of structural analogues of the morphine alkaloids” (J Med Chem, 1996).
